Measured values as given in patent publication US8598132B2, “Glycosylated indolocarbazoles, method for obtaining same and uses thereof” (Universidad de Oviedo, priority 2008, dated 2013).

Tests used:
Assay type in all cases: biochemical
AurA = target: T1, AurA (Homo sapiens, UniProt O14965); test: LabChip (Caliper) kinase assay, AurA; conditions: for inhibition at 0.01 µM: compound at 10 nM; for inhibition at 0.01 µM / inhibition at 0.1 µM: read-out: remaining kinase activity (in %) / percentage of inhibition; for inhibition at 0.1 µM: compound at 100 nM; for IC50: ATP at Km, read-out: CI50 (the source's name)
T1 construct: purchased Carna Biosciences
T1 sequence (O14965 1-403): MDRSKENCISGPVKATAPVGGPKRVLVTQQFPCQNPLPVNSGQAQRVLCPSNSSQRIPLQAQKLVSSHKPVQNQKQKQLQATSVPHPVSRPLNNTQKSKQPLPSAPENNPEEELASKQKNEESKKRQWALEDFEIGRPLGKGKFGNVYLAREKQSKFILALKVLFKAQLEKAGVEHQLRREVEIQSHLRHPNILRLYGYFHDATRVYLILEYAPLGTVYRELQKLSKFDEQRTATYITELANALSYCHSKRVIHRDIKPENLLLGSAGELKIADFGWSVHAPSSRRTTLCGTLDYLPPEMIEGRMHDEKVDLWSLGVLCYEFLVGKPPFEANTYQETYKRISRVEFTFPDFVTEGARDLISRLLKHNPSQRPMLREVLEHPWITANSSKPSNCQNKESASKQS
Description: (§1) The analysis of kinase activity described here was performed using LabChip (Caliper Life Sciences), specifically the Caliper LC3000 and the EZ Reader II instruments.
(§2) The kinase assay used measures the conversion of a fluorescent peptide (substrate) to a phosphorylated product. The reaction mixture, in a microplate well, is introduced by a capillary in a chip where the non-phosphorylated substrate and the phosphorylated product are separated by […]. The intensity of the fluorescent signal over time is related to the reaction progress. The phosphorylated product migrates quicker than the non-phosphorylated substrate and the signals of the two forms of the peptide appear as differentiated peaks. The Caliper determines the peak height and calculates the ratio of product to the peak sum (P/(P+S)). This value is used to compare wells with compounds and wells with controls and thus determine the % of inhibition for the given product.
(§3) The followings kinases were used for the enzymatic inhibition studies, between brackets the value of the Michaelis-Menten constant, Km, of the ATP (Adenosine triphosphate) for each kinase, in μM: obtained from Carna Biosciences: MAPKAPK2 (4.6), AurA (3.6), AurB (5), PKCζ (3.8), RSK1 (23.3), PRAK (5), Erk1 (33.4), PKD2 (32.1), CK1d (16.3), CHK1 (33), ABL (61.7), FYN (36), LYNa (17), CHK2 (57.8), MET (79.5), LCK (28.5), SRC (38), GSK3β (7.3), Erk2 (62.1), PKACα (1.7), AKT2 (186.1), INSR (871.8), p38a (396.5), AKT1(48), MSK1 (21.2), PKCβ2 (84.8), ROCK2 (3.3), PIM2 (4.9), AMPK (38.6), KDR (164.8), IRAK4 (196.5), SGK1 (121.8), SYK (33.5); obtained from Invitrogen: CDK2 (57.6), BTK (123), HGK (80); obtained from Upstate: MST2 (36.6), PKGα (16), PAK2 (1.9), IGF1R (320), FGFR1 (171), MARK1 (33), CAMK2δ (22.4), c-TAK1 (66), DYRK1a (18.1), CaMK4 (3.9), FLT3 (350), c-Raf (6.2), P70S6K (95).
(§4) The compounds were dissolved in 100% DMSO and were diluted at 25 times the final concentration desired for the assay. In the case of the determination of Cl50, serial dilutions were made to reach eight concentrations and give rise to the inhibition curve. 1 μL of each concentration is transferred, in duplicate to a 384-well microplate. 12 μL of enzymatic buffer is added to each well containing purified kinase (several suppliers as indicated above), 100 mM HEPES, pH 7.5, 1 mM DTT (Calbiochem), 0.002% Brij-35 (Sigma) and also in presence of 10 mM MgCl2 as cofactor, except for INSR and IRAK4 wherein 10 mM MnCl2 is used instead of MgCl2. For the kinases CAMK26 and CAMK4, 1 mM CaCl2 and 6.7 μg/mL of calmodulin are also added. For KDR kinase, 0.05% of the CHAPSO detergent is added. For the c-Raf kinase, 10 mM MnCl2 is added. For PKCβ2 0.02 μg/mL of PS/PMA is added. For PKGα se 10 μM of cGMP (cyclic guanosine monophosphate) is added. The compound and the enzyme are left for 15 minutes preincubation and, then, the following are added to each well: 12 μL of peptide buffer/ATP containing 100 mM HEPES, pH 7.5, 1.5 μM peptide marker with fluorescein (specific for the corresponding kinase), ATP (at concentration KM), and 0.002% Brij-35 to start the reaction. Generally, the reactions are incubated for 1-1.5 h at ambient temperature to obtain an adequate conversion (15-40%) of the peptide to the phosphorylated product. The reactions were ended by the addition of 45 μL of buffer containing 0 mM EDTA. The microplates were read by the LabChip 3000 using a 12-channel LabChip. The P/(P+S) values were obtained as described above and the CI50 curves were generated using XIfit.
(§5) Table 9a has the 0150 data obtained in pairs of compound-kinase selected from the compounds of formula (VII), (VIII), (IX), (XVI), (XVII) and (XVIII) after taking inhibition measurements at 100 nM and 10 nM. Those couples that provide >70% of inhibition at 10 nM were consider for measuring its IC50. […]

JAK2 = JAK2 (Homo sapiens, UniProt O60674); test: LabChip (Caliper) kinase assay, JAK2; conditions: for inhibition at 0.01 µM / inhibition at 0.1 µM: JAK2, read-out: remaining kinase activity (in %) / percentage of inhibition; for inhibition at 0.01 µM: compound at 10 nM; for inhibition at 0.1 µM: compound at 100 nM; for IC50: Jak2, ATP at Km, read-out: CI50 (the source's name)
Chain of JAK2 (O60674 whole entry, species assumed): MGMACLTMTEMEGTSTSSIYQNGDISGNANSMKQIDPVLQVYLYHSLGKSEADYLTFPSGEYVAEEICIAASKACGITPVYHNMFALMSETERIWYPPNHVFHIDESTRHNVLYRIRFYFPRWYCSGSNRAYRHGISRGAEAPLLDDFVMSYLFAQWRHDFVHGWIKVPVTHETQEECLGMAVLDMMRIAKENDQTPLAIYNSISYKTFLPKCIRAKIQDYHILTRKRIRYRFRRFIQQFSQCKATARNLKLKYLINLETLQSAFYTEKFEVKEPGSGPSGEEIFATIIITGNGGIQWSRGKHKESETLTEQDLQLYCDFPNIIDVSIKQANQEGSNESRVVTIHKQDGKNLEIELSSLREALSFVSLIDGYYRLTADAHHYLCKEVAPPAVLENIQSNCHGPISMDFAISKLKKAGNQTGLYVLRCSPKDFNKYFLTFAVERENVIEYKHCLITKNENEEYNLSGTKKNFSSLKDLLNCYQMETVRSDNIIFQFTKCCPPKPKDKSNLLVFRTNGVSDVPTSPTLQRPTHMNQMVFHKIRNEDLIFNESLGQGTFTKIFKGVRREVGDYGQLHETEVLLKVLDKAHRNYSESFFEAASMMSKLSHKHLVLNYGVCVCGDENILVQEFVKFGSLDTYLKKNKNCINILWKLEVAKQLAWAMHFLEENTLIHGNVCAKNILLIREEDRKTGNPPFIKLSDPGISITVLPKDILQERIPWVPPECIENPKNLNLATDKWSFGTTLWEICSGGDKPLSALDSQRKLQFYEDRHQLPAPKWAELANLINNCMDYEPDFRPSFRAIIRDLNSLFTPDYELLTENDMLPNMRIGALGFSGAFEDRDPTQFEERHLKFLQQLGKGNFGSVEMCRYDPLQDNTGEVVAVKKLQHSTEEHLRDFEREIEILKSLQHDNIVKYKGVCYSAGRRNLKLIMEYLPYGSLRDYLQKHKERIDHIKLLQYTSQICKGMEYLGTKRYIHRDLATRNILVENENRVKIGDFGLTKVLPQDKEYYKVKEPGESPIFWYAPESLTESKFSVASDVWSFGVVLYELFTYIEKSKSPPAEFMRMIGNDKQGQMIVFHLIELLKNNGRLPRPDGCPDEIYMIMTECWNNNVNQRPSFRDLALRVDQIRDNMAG
Description: as §1, §2, §3, §4, §5

SYK = target: T2, SYK (Homo sapiens, UniProt P43405); test: LabChip (Caliper) kinase assay, SYK; conditions: for inhibition at 0.01 µM: compound at 10 nM; for inhibition at 0.01 µM / inhibition at 0.1 µM: read-out: remaining kinase activity (in %) / percentage of inhibition; for inhibition at 0.1 µM: compound at 100 nM; for IC50: ATP at Km, read-out: CI50 (the source's name)
T2 construct: purchased Carna Biosciences
Description: as §1, §2, §3, §4, §5

Row | Compound | inhibition at 0.01 µM (AurA) [%] | inhibition at 0.1 µM (AurA) [%] | inhibition at 0.01 µM (JAK2) [%] | inhibition at 0.1 µM (JAK2) [%] | inhibition at 0.01 µM (SYK) [%] | inhibition at 0.1 µM (SYK) [%] | IC50 (AurA) [nM] | IC50 (JAK2) [nM] | IC50 (SYK) [nM]
1 | C[C@H]1O[C@@H](n2c3ccccc3c3c4c(c5c6ccccc6[nH]c5c32)CNC4=O)C[C@@H](O)[C@@H]1O [formula (XV), N^13-1′-β-D-olivosyl-k252c] | 3 | 20 | 37 | 89 | 7 | 29 |  |  | 
2 | C[C@]12O[C@H](C[C@@H](O)[C@H]1O)n1c3ccccc3c3c4c(c5c6ccccc6n2c5c31)CNC4=O [formula (XVIII), N^12-5′(S)-N^13-1′-(R)-L-digitoxosyl-k252c] |  |  |  |  |  |  | > 10 | 0.53 | > 10
3 | C[C@]12O[C@H]([C@H](O)[C@H](O)[C@H]1O)n1c3ccccc3c3c4c(c5c6ccccc6n2c5c31)C(=O)NC4=O [formula (VII), N^12-5′(S)-N^13-1′-(R)-L-rhamnosylarcyriaflavin] |  |  |  |  |  |  | > 10 | 0.5 | 1
4 | C[C@]12O[C@H]([C@H](O)[C@H](O)[C@H]1O)n1c3ccccc3c3c4c(c5c6ccccc6n2c5c31)CNC4=O [formula (XVI), N^12-5′(S)-N^13-1′-(R)-L-rhamnosyl-k252c] |  |  |  |  |  |  |  | 0.43 | 
5 | C[C@@H]1O[C@@H](n2c3ccccc3c3c4c(c5c6ccccc6[nH]c5c32)C(=O)NC4=O)C[C@H](O)[C@H]1O [formula (IV), N^13-1′-β-L-olivosylarcyriaflavin] | 4 | 19 | 19 | 74 | 11 | 35 |  |  | 
6 | C[C@H]1O[C@@H](n2c3ccccc3c3c4c(c5c6ccccc6[nH]c5c32)C(=O)NC4=O)C[C@@H](O)[C@@H]1O [formula (VI), N^13-1′-β-D-olivosylarcyriaflavin] | 3 | 13 | 42 | 88 | 5 | 31 |  |  | 
7 | C[C@@H]1O[C@@H](n2c3ccccc3c3c4c(c5c6ccccc6[nH]c5c32)CNC4=O)C[C@@H](O)[C@H]1O [formula (XIV), N^13-1′-β-L-digitoxosyl-k252c] | 1 | 5 | -4 | 25 | -1 | 11 |  |  | 
8 | C[C@@H]1O[C@@H](n2c3ccccc3c3c4c(c5c6ccccc6[nH]c5c32)CNC4=O)C[C@H](O)[C@H]1O [formula (XIII), N^13-1′-β-L-olivosyl-k252c] | 2 | 24 | 14 | 79 | 12 | 30 |  |  | 
9 | C[C@@H]1O[C@@H](n2c3ccccc3c3c4c(c5c6ccccc6[nH]c5c32)C(=O)NC4=O)C[C@@H](O)[C@H]1O [formula (V), N^13-1′-β-L-digitoxosylarcyriaflavin] | 4 | 22 | 23 | 65 | 13 | 24 |  |  | 
10 | C[C@@H]1O[C@@H](n2c3ccccc3c3c4c(c5c6ccccc6[nH]c5c32)C(=O)NC4=O)[C@H](O)[C@H](O)[C@H]1O [formula (III), N^13-1′-β-L-rhamnosylarcyriaflavin] | 0 | 5 | -3 | 33 | 2 | -8 |  |  | 
11 | C[C@@H]1O[C@@H](n2c3ccccc3c3c4c(c5c6ccccc6[nH]c5c32)CNC4=O)[C@H](O)[C@H](O)[C@H]1O [formula (XII), N^13-1′-β-L-rhamnosyl-k252c] | 2 | 3 | 7 | 39 | 8 | 10 |  |  | 
12 | C[C@]12O[C@H](C[C@H](O)[C@H]1O)n1c3ccccc3c3c4c(c5c6ccccc6n2c5c31)C(=O)NC4=O [formula (VIII), N^12-5′(S)-N^13-1′-(R)-L-olivosylarcyriaflavin] |  |  |  |  |  |  | > 10 | 0.74 | 1.1
13 | C[C@]12O[C@H](C[C@@H](O)[C@H]1O)n1c3ccccc3c3c4c(c5c6ccccc6n2c5c31)C(=O)NC4=O [formula (IX), N^12-5′(S)-N^13-1′-(R)-L-digitoxosylarcyriaflavin] |  |  |  |  |  |  | 6.7 | 1.2 | 2.3
14 | C[C@]12O[C@H](C[C@H](O)[C@H]1O)n1c3ccccc3c3c4c(c5c6ccccc6n2c5c31)CNC4=O [formula (XVII), N^12-5′(S)-N^13-1′-(R)-L-olivosyl-k252c] |  |  |  |  |  |  | 5 | 0.57 | 
